Earlier results as cited in patent publication US8003690B2, “Topical nanoparticulate spironolactone formulation” (Jagotec AG, priority 2002, dated 2011).

SMILES: CC(=O)S[C@@H]1CC2=CC(=O)CC[C@]2(C)[C@H]2CC[C@@]3(C)[C@@H](CC[C@@]34CCC(=O)O4)[C@H]12 [Spironolactone]
- solubility in water: 2.8 mg/100 ml
